Data taken from patent US20250195448A1, “CELL TYPE SELECTIVE DELIVERY OF EXOSOME CARGO USING NOTCH LIGAND-RECEPTOR SYSTEM” (Northwestern University, priority 2023, published 2025).
“Also recorded” adds a separate entry of the source.

Tests used:
Notch signaling pathway = assay: Pharmacological treatments of neurons, Mg^2+-free glycine-induced Notch activation (WB); assay type: cell-based, rat; conditions: 90 mins after treatment; for effect on Mg^2+-free glycine-induced elevation of activated-Notch1, -Notch2 and Hes1 protein levels: APV 50 μM, dynasore 80 μM pretreatment
Description: Synaptic NMDARs were activated as previously described^16,63. […] The osmolarity was adjusted to 300-330 mOsm/l). […] The osmolarity was adjusted to 300-330 mOsm/l). […] Then, neuron culture medium was carefully removed from dishes. […] Then neurons were washed twice with Veh solution, the saved culture medium was returned and maintained in incubator for assigned durations (37° C., 5% CO2). Neuron samples were collected and resuspended in a RIPA lysis buffer (50 mM Tris, 150 mM NaCl, 0.1% SDS, 1 mM EDTA, 0.5% sodium deoxycholate, 1% Triton X-100, 1× protease inhibitor cocktail (Thermo Fisher Scientific, Cat #78443), 1× phosphatase inhibitor (Thermo Fisher Scientific, Cat #78420), pH 7.4). The resuspended lysates were vortexed for 20 s and then incubated on ice for 30 min and centrifuged at 16,200 g for 15 mins. The supernatants were mixed with 4×SDS loading buffer at a 3:1 ratio. The mixtures were boiled at 95° C. for 5 mins. […] Fiji (NIH) was used for quantification.

Alix = Alix phosphorylation in Mg^2+-free glycine-treated neurons (IP of Alix, WB p-S/T); assay type: cell-based, rat; conditions: for effect on Mg^2+-free glycine-induced Alix phosphorylation: H89 20 μM, staurosporine 1 μM, APV 50 μM, KN93 10 μM, AIP 1 μM
Description: Neurons were pretreated with DMSO (1:1000) or dynasore (80 μM, Sigma-Aldrich, Cat #SML0340) or H89 (20 μM, Sigma-Aldrich, Cat #B1427) or staurosporine (1 μM, Tocris, Cat #1285) or APV (50 μM, Sigma-Aldrich, Cat #A5282) or KN93 (10 μM, Sigma-Aldrich, Cat #K1385) or AIP (1 μM, Anaspec, Cat #AS-64929) for 30 mins at 37° C. in a humidified 5% CO2 atmosphere incubator. Then, neuron culture medium was carefully removed from dishes. The collected medium was then kept at 37° C. in a humidified 5% CO2 atmosphere incubator. The neurons were washed three times with Veh or Mg^2+-free glycine and incubated for 5 min with solutions containing different inhibitors. Then neurons were washed twice with Veh solution, the saved culture medium was returned and maintained in incubator for assigned durations (37° C., 5% CO2).
WedgeWell™ Tris-Glycine Mini Protein Gels (Fisher Scientific, Cat #XP04125BOX, XP04120BOX and XV00100PK20) were used for electrophoresis. After electrophoresis, proteins were transferred onto nitrocellulose membranes (Thermo Fisher, Cat #4500002). For WB, the membranes were blocked with 10% bovine serum albumin (BSA, Jackson immunoResearch laboratories, Cat #001-000-162) in TBST solution (Tris-buffered saline, 0.1% Tween 20) for one hour in room temperature (RT). Then membranes were incubated with primary antibodies in incubation solution (3% BSA in TBST) overnight at 4° C. with mild agitation. Following primary antibodies were used: mouse anti-Alix (1:1000, Cell Signaling Technology, Cat #2171S, RRID: AB_2299455), rabbit anti-Alix (1:1000, Cell Signaling Technology, Cat #18269, RRID: AB_2798796), mouse anti-Tsg101 (1:1000, Santa Cruz Biotechnology, Cat #sc-7964, RRID: AB_671392), mouse anti-CD81 (1:1000, Santa Cruz Biotechnology, Cat #sc-166029, RRID: AB_2275892), rabbit anti-Notch1ICD (1:1000, Abcam, Cat #ab52627, RRID: AB_881725), rabbit anti-Notch2ICD (1:1000, Cell Signaling Technology, Cat #5732S, RRID: AB_10693319), rabbit anti-activated Notch1 (1:1000, Abcam, Cat #ab52301, RRID: AB_881726), rabbit anti-activated Notch2 (1:1000, MyBioSource, Cat #MBS9410510), rabbit anti-Sdcbp (1:1000, Abcam, Cat #ab19903, RRID: AB_445200 and Cell Signaling Technology, Cat #27964), rabbit anti-GM130 (1:1000, Abcam, Cat #ab52649, RRID: AB_880266), rabbit anti-Hes1 (1:1000, Cell Signaling Technology, Cat #11988S, RRID: AB_2728766 and Abcam, Cat #ab71559, RRID: AB_1209570), chicken anti-Tuj1 (1:2000, Novus Biologicals, Cat #NB100-1612, RRID: AB_10000548), rabbit anti-p-S/T (1:1000, Cell Signaling Technology, Cat #9624S, RRID: AB_331817), mouse anti-PSD95 (1:2000, Thermo Fisher Scientific, Cat #MA1-046, RRID: AB_2092361), rabbit anti-PSD95(pS295) (1:1000, Abcam, Cat #ab76108, RRID: AB_1310621), rabbit anti-GAPDH (1:2000, Cell Signaling Technology, Cat #2118, RRID: AB_561053), rabbit anti-GluA1 (1:1000, EMD Millipore, Cat #PC246, RRID: AB_564636) and guinea pig anti-Bassoon (1:1000, Synaptic Systems, Cat #141 318, RRID: AB_2927388). After 3×10 mins intense wash in TBST solution, membranes were incubated with corresponding secondary antibodies for one hour at RT with mild agitation. Following secondary antibodies were used: goat-anti-rabbit poly-HRP (1:2000, Thermo Scientific, Cat #32260), goat-anti-mouse poly-HRP (1:2000, Thermo Scientific, Cat #32230), goat-anti-chicken HRP (1:2000, Abcam, Cat #ab97135) and Goat anti-Guinea Pig poly-HRP (1:2000, Fisher Scientific, Cat #OB6090-05). […] Fiji (NIH) was used for quantification.

hippocampal neurons = assay: Mg^2+-free glycine-induced neuronal EV release; assay type: cell-based; conditions: for effect on Mg^2+-free glycine-induced EV release: APV 50 μM, H89 20 μM
Description: Synaptic NMDARs were activated as previously described^16,63. […] The osmolarity was adjusted to 300-330 mOsm/l). […] The osmolarity was adjusted to 300-330 mOsm/l). […] The EV-containing supernatant was centrifuged at 3000×g for 30 mins at 4° C. to remove residual neurons and large debris. Then, the supernatant was concentrated using a molecular weight cutoff (MWCO) filter (10 KDa, EMD Millipore, Cat #UFC801024) to 0.5 ml. The concentrated solution was then fractionated into 10 fractions (0.5 ml in EV-free PBS, MEDIATECH INC CA, Cat #21-040-CV) using a qE-Voriginal-35 nm SEC column (Izon Science, Cat #SP5-USD) with an automated fraction collector V1 (Izon Science, Cat #AFC-V1). For each experimental group, EVs released from three 60 mm dishes of mouse hippocampal neurons were pooled and enriched by the SEC method as described above. Then take 10 μl of the enriched EVs from each sample and dilute them with 990 μl EV-free PBS. The samples were centrifuged at 2500×g for 15 mins. Mix 0.5 ml of each sample with 0.5 ml incubation solution. Load 70 μl of each mixture to an ExoView Mouse Tetraspanin chip (Nanoview Bioscience, Cat #EV-TETRA-M2) and incubate overnight at RT in dark. The next day, unbound EVs were washed off the chip by five 3-min washes with the solution A. After incubating with the block solution for 1 hr (RT), the chips were incubated with anti-tetraspanin mixture (Included in the kit, anti-CD81, CF® 555, anti-CD9, CF® […] and anti-CD63, CF® 647) for 1 hr on an orbital shaker. The chips were washed with the solution A twice (3 mins each) and the solution B 5 times (3 min each). The chips were then rinsed in MilliQ water to remove excess solution B. Air dry the chips. A NanoView R100 equipment (Nanoview Bioscience) was used to scan the chips. The data was analyzed by ExoView Analyzer 3.1.4 (Nanoview Bioscience). […] Then, neuron culture medium was carefully removed from dishes. […] Then neurons were washed twice with Veh solution, the saved culture medium was returned and maintained in incubator for assigned durations (37° C., 5% CO2).

PSD95 = tested on: PSD95
Description: WedgeWell™ Tris-Glycine Mini Protein Gels (Fisher Scientific, Cat #XP04125BOX, XP04120BOX and XV00100PK20) were used for electrophoresis. After electrophoresis, proteins were transferred onto nitrocellulose membranes (Thermo Fisher, Cat #4500002). For WB, the membranes were blocked with 10% bovine serum albumin (BSA, Jackson immunoResearch laboratories, Cat #001-000-162) in TBST solution (Tris-buffered saline, 0.1% Tween 20) for one hour in room temperature (RT). Then membranes were incubated with primary antibodies in incubation solution (3% BSA in TBST) overnight at 4° C. with mild agitation. […] Fiji (NIH) was used for quantification.

neurons = conditions: 30 mins treatment
Description: An aliquot of each sample (100 l) was transferred from the culture wells to the wells of a 96-well plate and mixed with 100 μl of the reaction solution provided by the kit. Optical density was measured at 492 nm 45 min later using a Synergy HTX multi-mode microplate reader (Biotek). Background absorbance at 620 nm was subtracted. The maximal releasable LDH in each well was then obtained by a 15 min incubation with 1% Triton X-100 at the end of each experiment.

Notch target genes = conditions: 60 mins after treatment

Description for rat hippocampal neurons: DIV 18 rat hippocampal neurons in 6-well plate (cover glasses, Carolina, Cat #633037, 1.5×10^6 cells per well) were used for this assay. At DIV 16, neurons were co-transfected with either 1 μg mCherry+GFP or 1 μg mCherry-Alix+GFP plasmids using HilyMax (Dojindo Cat #H357-15). Two days later, the neurons were used for live cell imaging analysis. Neurons (put in a magnetic imaging chamber, Warner Instruments, Cat #QR-40L) were rinsed three times with warm (37° C.) extracellular solution (pH 7.4, 150 mM NaCl, 5 mM KCl, 1 mM MgCl2, 2 mM CaCl2), 10 mM glucose, 10 mM HEPES). Then the neurons were placed into a heating stage (37° C.) supplied with a humidified 5% CO2 atmosphere and were incubated with this solution for 20 mins in a humidified 5% CO2 atmosphere incubator at 37° C. […] Then the extracellular solution was put back. Images were captured using a Nikon A1R+ confocal laser microscope and a 100× oil objective lens (also was kept at 37° C. during recording). […] The data was imported to Fiji (NIH) for further analysis.

SMILES | effect on Mg^2+-free glycine-induced elevation of activated-Notch1, -Notch2 and Hes1 protein levels (Notch signaling pathway) | effect on Mg^2+-free glycine-induced Alix phosphorylation (Alix) | effect on Mg^2+-free glycine-induced EV release (hippocampal neurons) | also measured
NCC(=O)O [Mg^2+-free glycine, glycine] |  |  |  | levels of activated-Notch1, -Notch2 and Hes1 after Mg^2+-free glycine treatment (Notch signaling pathway; WB): elevated; Alix phosphorylation after Mg^2+-free glycine stimulation (Alix): leads to Alix phosphorylation; neuronal EV biogenesis and release (hippocampal neurons; Mg^2+-free glycine solution, 30 mins): triggered; phosphorylation of Ser295 (pS295) in PSD95 (PSD95): induces; plasma membrane rapture (LDH) (neurons): does not cause; dendritic spine enlargement (rat hippocampal neurons): enlarged dendritic spines; Notch target gene expression (Notch target genes): activated
N[C@H](CCCP(=O)(O)O)C(=O)O [APV, D-2-amino-5-phosphonovalerate] | inhibited | blocked; also recorded: significantly reduced | suppress; also recorded: blocked | 
O=C(N/N=C/c1ccc(O)c(O)c1)c1cc2ccccc2cc1O [Dynasore] | blocked elevation |  |  | effect on Mg^2+-free glycine-induced elevation of activated-Notch1, -Notch2 and Hes1 protein levels (Notch signaling pathway; listed as dynasore): inhibited
CN[C@@H]1C[C@H]2O[C@@](C)([C@@H]1OC)n1c3ccccc3c3c4c(c5c6ccccc6n2c5c31)C(=O)NC4 [Stau, staurosporine] |  | not significant |  | 
COc1ccc(S(=O)(=O)N(CCO)c2ccccc2CN(C)C/C=C/c2ccc(Cl)cc2)cc1 [KN93] |  | failed to block |  | 
O=S(=O)(NCCNC/C=C/c1ccc(Br)cc1)c1cccc2cnccc12 [H89] |  | significantly inhibit; also recorded: inhibited | suppress; also recorded: blocked | 
